Patent US20140121216A1, “INDOLEAMINE DERIVATIVES FOR THE TREATMENT OF CENTRAL NERVOUS SYSTEM DISEASES” (Adamed Sp. z o.o., priority 2011, published 2014)

What was measured:
[1] = tested on: Male CD-1 mice; assay: Dizocilpine-induced locomotor hyperactivity in mice; format: in vivo
Method: Potential antipsychotic activity was tested for the representative compound 24 in mouse model of psychosis, involving the induction of locomotor hyperactivity by administering psychotomimetic substance-dizocilpine. The ability of a test compound to remove this effect is a measure of potential antipsychotic activity.
Male CD-1 mice were group-housed for 2-3 day period in polycarbonate Makrolon type 3 cages (dimensions 26.5×15×42 cm) in an environmentally controlled, experimental room (ambient temperature 22-20° C.; relative humidity 50-60%; 12:12 light:dark cycle, lights on at 8:00), in groups of 15. Standard laboratory food (Ssniff M-Z) and filtered water were freely available. On the day before experiments the equipment produced “white noise” was turned on for 30 minutes and mice were weighted exact to 1 g. Animals were assigned randomly to treatment groups. All the experiments were performed by two observers unaware of the treatment applied between 9:00 and 14:00 on separate groups of animals. […]
The locomotor activity was recorded with an Opto M3 multi-channel activity monitor (MultiDevice Software v.1.3, Columbus Instruments). The mice were individually placed in plastic cages (22×12×13 cm) for 30 minutes habituation period, and then the crossings of each channel (ambulation) were counted during 1 h with data recording every 5 minutes. […]

[2] = molecular target: T1, 5-HT7 receptor, human recombinant (Homo sapiens, UniProt P34969); assay: Binding assay, 5-HT7 receptor ([3H]LSD); settings: read-out: Inhibition constant Ki 5-HT7
T1 construct: purchased PerkinElmer
T1 sequence (P34969 whole entry): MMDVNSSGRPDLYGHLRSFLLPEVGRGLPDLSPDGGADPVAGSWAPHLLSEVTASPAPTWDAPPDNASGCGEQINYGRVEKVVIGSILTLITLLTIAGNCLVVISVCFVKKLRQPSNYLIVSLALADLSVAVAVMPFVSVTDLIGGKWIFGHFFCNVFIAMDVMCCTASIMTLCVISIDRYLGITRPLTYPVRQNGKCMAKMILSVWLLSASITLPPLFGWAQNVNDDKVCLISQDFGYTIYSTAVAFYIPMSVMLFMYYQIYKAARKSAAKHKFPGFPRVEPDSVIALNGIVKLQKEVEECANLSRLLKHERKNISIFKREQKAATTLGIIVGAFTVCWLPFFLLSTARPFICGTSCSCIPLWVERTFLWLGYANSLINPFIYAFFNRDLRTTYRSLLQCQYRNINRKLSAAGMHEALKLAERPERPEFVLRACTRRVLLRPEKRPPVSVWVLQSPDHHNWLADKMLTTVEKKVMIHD
Method: Moreover, ability of the compounds of the invention to block potassium channel hERG was tested.
The specific ligand binding to the receptors is defined as the difference between the total binding and the non-specific binding determined in the presence of an excess of unlabelled ligand.
The inhibition constants (Ki) were calculated using the Cheng Prusoff equation (Ki=IC50/(1+(L/KD)), where L=concentration of radioligand in the assay, and KD=affinity of the radioligand for the receptor). A Scatchard plot is used to determine the Kd. The IC50 values (concentration causing a half-maximal inhibition of control specific binding) and Hill coefficients (nH) were determined by non-linear regression analysis of the competition curves generated with mean replicate values using Hill equation curve fitting (Y=D+[(A−D)/(1+(C/C50)^nH)], where Y=specific binding, D=minimum specific binding, A=maximum specific binding, C=compound concentration, C50=IC50, and nH=slope factor).

[3] = tested on: Swiss albino mice; assay: Four-plate test in Swiss albino mice; format: in vivo
Method: (§1) Within 24 h prior to testing, animals were habituated to experimental conditions. For this purpose mice in home cages were transferred to the experimental room for 15 min., while maintaining the lighting and the “white noise” characteristic for the experiment.
The four-plate test (BIOSEB, France) was performed in a cage (25×18×16 cm) floored by four identical rectangular metal plates (8×11 cm) separated from one another by a gap of 4 mm. The top of the cage was covered by a transparent Perspex lid that prevented escape behaviour. The plates were connected to a device that generated electric shocks. Animals were placed individually in the experimental cage and following a 15-s habituation period, the animal's motivation to explore a novel environment was suppressed by an electric foot shock (0.8 mA, 0.5 s) every time it moved from one plate is to another during a 1-minute test session. This action is referred to as a ‘punished crossing’, and was followed by a 3 s shock interval, during which the animal could move across plates without receiving a shock. The measure of anxiolytic activity of the compound was the number of ‘punished crossings’ from one plate to the adjacent during 1-min test period.

[4] = tested on: C57BL/6J mice; assay: Tail suspension test in C57BL/6J mice; format: in vivo
Method: as §1
The testing procedure was performed on male C57BL/6J mice and based on a method of Steru et al. (The tail suspension test: a new method for screening antidepressants in mice, Psychopharmacology 85, 367-370, 1985). An automated device (Kinder Scientific) was used. After 1 h of adaptation in the experimental room with low light, the mice received the test compound intraperitoneally (at least 3 selected doses).
After a specified time after administration of the test compound mice were suspended by the tail with tape to an aluminum hook connected to a strain gauge. Mice were positioned such that the base of their tail was aligned with the bottom of the hook. […] A strain gauge connected to computer software detected any movements by the mouse in order to record the number of times (events) each subject enters into an escape behavior (struggling episodes), the duration of the event, and the average strength of each event during a 6-min test session. The following settings were used in all experiments: threshold 0.20 Newtons, off delay 30 msec.

In the case of `O=C1CCc2ccc(OCCCCN3CCN(c4cccc5c4ccn5S(=O)(=O)c4ccccc4)CC3)cc2N1` [Compound 24, 7-(4-(4-(1-(Phenylsulphonyl)-1H-indol-4-yl)piperazin-1-yl)butoxy)-3,4-dihydroquinolin-2(1H)-one], the “activity in words, dizocilpine-induced locomotor hyperactivity test” value [1] is reported as “active”, the “MED (minimum effective dose), dizocilpine-induced locomotor hyperactivity” value ([1]; i.p., 30 minutes before the experiment) is reported as 10 mg/kg and the Ki [2] is reported as 67 nM. The “MED (minimum effective dose), four-plate test” value ([3]; Swiss albino mice) was 5 mg/kg, the “activity in words, four-plate test” value ([3]; mice) was “active” and the “MED (minimum effective dose), tail suspension test” value ([4]; C57BL/6J mice, i.p.) was 1.25 mg/kg. The “activity in words, tail suspension test” value ([4]; mice) was “active”.
